# Test results published in patent publication US11247965B2 (VenatoRx Pharmaceuticals, Inc., priority 2017, dated 2022).
# Columns and labels:
# [1] = In vitro cytotoxicity, MTT cell viability assay in HepG2 cells; type: cell-based; settings: human, Cytotoxicity CC50
# How it was run: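 Using MTT conversion as the viability measure, HepG2 cells were incubated with compounds for 7 days (30 μM to 1.0 nM). Absorbance at 492 nm was normalized to vehicle and fitted to give CC50.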
# [2] = system: HBV replication in HepAD38 cells; assay: Anti-HBV activity in HepAD38 cells, extracellular HBV DNA by QPCR; type: cell-based, HBV (genotype D, serotype ayw); settings: Hepatitis B virus, HePAD38, 168 h, read-out: Anti-HBV EC50, HepAD38 cells, extracellular HBV DNA by QPCR, 7 days of incubation
# How it was run: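 Seven-day compound exposure (30 μM down to 10 nM, half-log steps) after tetracycline withdrawal induced HBV replication in HepAD38 cells. Extracellular viral DNA measured by QPCR (copies/mL via standard curve), normalised to DMSO wells; EC50 from 4-parameter non-linear regression.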
SMILES,CC50 at 7 days [1],EC50 [2]
"Cc1cc(NC(=O)c2ccc(F)c(C(F)(F)C(=O)N3[C@@H]4CC[C@H]3C[C@@H](N)C4)c2)ccc1F [Example 226, 3-(2-((1R,3r,5S)-3-amino-8-azabicyclo[3.2.1]octan-8-yl)-1,1-difluoro-2-oxoethyl)-4-fluoro-N-(4-fluoro-3-methylphenyl)benzamide]",5 to 30 µM,< 5 µM
"CC(=O)N[C@@H]1C[C@H]2CC[C@@H](C1)N2C(=O)C(F)(F)c1cc(C(=O)Nc2ccc(F)c(C)c2)ccc1F [Example 227, 3-(2-((1R,3s,5S)-3-acetamido-8-azabicyclo[3.2.1]octan-8-yl)-1,1-difluoro-2-oxoethyl)-4-fluoro-N-(4-fluoro-3-methylphenyl)benzamide]",5 to 30 µM,< 5 µM
"Cc1cc(NC(=O)c2ccc(F)c(C(F)(F)C(=O)N3[C@@H]4CC[C@H]3C[C@H](N)C4)c2)ccc1F [Example 228, 3-(2-((1R,3s,5S)-3-amino-8-azabicyclo[3.2.1]octan-8-yl)-1,1-difluoro-2-oxoethyl)-4-fluoro-N-(4-fluoro-3-methylphenyl)benzamide]",5 to 30 µM,< 5 µM
"Cc1cc(NC(=O)c2ccc(F)c(C(F)(F)C(=O)N3CCC(NC(=O)OC(C)(C)C)CC3)c2)ccc1F [Example 229, tert-butyl (1-(2,2-difluoro-2-(2-fluoro-5-((4-fluoro-3-methylphenyl)carbamoyl)phenyl)acetyl)piperidin-4-yl)carbamate]",5 to 30 µM,< 5 µM
"Cc1cc(NC(=O)c2ccc(F)c(C(F)(F)C(=O)N3CCC(N)CC3)c2)ccc1F [Example 230, 3-(2-(4-aminopiperidin-1-yl)-1,1-difluoro-2-oxoethyl)-4-fluoro-N-(4-fluoro-3-methylphenyl)benzamide]",5 to 30 µM,< 5 µM
"Cc1cc(NC(=O)c2ccc(F)c(C(F)(F)C(=O)N3CCC(NS(C)(=O)=O)CC3)c2)ccc1F [Example 231, 3-(1,1-difluoro-2-(4-(methylsulfonamido)piperidin-1-yl)-2-oxoethyl)-4-fluoro-N-(4-fluoro-3-methylphenyl)benzamide]",5 to 30 µM,< 5 µM
"Cc1cc(NC(=O)c2ccc(F)c(C(F)(F)C(=O)N3CCC(NC(=O)CC4CCOCC4)CC3)c2)ccc1F [Example 232, 3-(1,1-difluoro-2-oxo-2-(4-(2-(tetrahydro-2H-pyran-4-yl)acetamido)piperidin-1-yl)ethyl)-4-fluoro-N-(4-fluoro-3-methylphenyl)benzamide]",5 to 30 µM,< 5 µM
"Cc1cc(NC(=O)c2ccc(F)c(C(F)(F)C(=O)N3CCC(NC(=O)C4CCNC(=O)C4)CC3)c2)ccc1F (stereo not shown) [Example 233, N-(1-(2,2-difluoro-2-(2-fluoro-5-((4-fluoro-3-methylphenyl)carbamoyl)phenyl)acetyl)piperidin-4-yl)-2-oxopiperidine-4-carboxamide]",5 to 30 µM,< 5 µM
"Cc1cc(NC(=O)c2ccc(F)c(C(F)(F)C(=O)N3CC[C@H](N)C3)c2)ccc1F [Example 234, (S)-3-(2-(3-aminopyrrolidin-1-yl)-1,1-difluoro-2-oxoethyl)-4-fluoro-N-(4-fluoro-3-methylphenyl)benzamide]",> 30 µM,5 to 30 µM
"Cc1cc(NC(=O)c2ccc(F)c(C(F)(F)C(=O)NC3CCC(C(=O)O)CC3)c2)ccc1F (stereo not shown) [Example 235, (1r,4r)-4-(2,2-difluoro-2-(2-fluoro-5-((4-fluoro-3-methylphenyl)carbamoyl)phenyl)acetamido)cyclohexane-1-carboxylic acid]",> 30 µM,5 to 30 µM
"Cc1cc(NC(=O)c2ccc(F)c(C(F)(F)C(=O)NC3(C#N)CC3)c2)ccc1F [Example 236, 3-(2-((1-cyanocyclopropyl)amino)-1,1-difluoro-2-oxoethyl)-4-fluoro-N-(4-fluoro-3-methylphenyl)benzamide]",> 30 µM,5 to 30 µM
"Cc1cc(NC(=O)c2ccc(F)c(C(F)(F)C(=O)N3CCOC[C@H]3C(=O)O)c2)ccc1F [Example 237, (S)-4-(2,2-difluoro-2-(2-fluoro-5-((4-fluoro-3-methylphenyl)carbamoyl)phenyl)acetyl)morpholine-3-carboxylic acid]",> 30 µM,5 to 30 µM
"Cc1cc(NC(=O)c2ccc(F)c(C(F)(F)C(=O)N3CCc4[nH]cnc4C3)c2)ccc1F [Example 238, 3-(1,1-difluoro-2-oxo-2-(1,4,6,7-tetrahydro-5H-imidazo[4,5-c]pyridin-5-yl)ethyl)-4-fluoro-N-(4-fluoro-3-methylphenyl)benzamide]",> 30 µM,< 5 µM
"COC(=O)N1C[C@H]2COC[C@@H](C1)N2C(=O)C(F)(F)c1cc(C(=O)Nc2ccc(F)c(C)c2)ccc1F [Example 239, methyl (1R,5S)-9-(2,2-difluoro-2-(2-fluoro-5-((4-fluoro-3-methylphenyl)carbamoyl)phenyl)acetyl)-3-oxa-7,9-diazabicyclo[3.3.1]nonane-7-carboxylate]",5 to 30 µM,< 5 µM
"Cc1cc(NC(=O)c2ccc(F)c(C(F)(F)C(=O)N3[C@@H]4CC[C@H]3CC(O)(CC#N)C4)c2)ccc1F (stereo partly drawn) [Example 240, 3-(2-((1R,5S)-3-(cyanomethyl)-3-hydroxy-8-azabicyclo[3.2.1]octan-8-yl)-1,1-difluoro-2-oxoethyl)-4-fluoro-N-(4-fluoro-3-methylphenyl)benzamide]",< 5 µM,< 5 µM
"Cc1cc(NC(=O)c2ccc(F)c(C(F)(F)C(=O)N3[C@@H]4CC[C@H]3CC(O)(CC(N)=O)C4)c2)ccc1F (stereo partly drawn) [Example 241, 3-(2-((1R,5S)-3-(2-amino-2-oxoethyl)-3-hydroxy-8-azabicyclo[3.2.1]octan-8-yl)-1,1-difluoro-2-oxoethyl)-4-fluoro-N-(4-fluoro-3-methylphenyl)benzamide]",5 to 30 µM,< 5 µM
"Cc1cc(NC(=O)c2ccc(F)c(C(F)(F)C(=O)N3CCc4nc(N)sc4C3)c2)ccc1F [Example 242, 3-(2-(2-amino-6,7-dihydrothiazolo[5,4-c]pyridin-5(4H)-yl)-1,1-difluoro-2-oxoethyl)-4-fluoro-N-(4-fluoro-3-methylphenyl)benzamide]",5 to 30 µM,< 5 µM
"Cc1cc(NC(=O)c2ccnc(C(F)(F)C(=O)N3CCC(O)CC3)c2)ccc1F [Example 243, 2-(1,1-difluoro-2-(4-hydroxypiperidin-1-yl)-2-oxoethyl)-N-(4-fluoro-3-methylphenyl)isonicotinamide]",> 30 µM,5 to 30 µM
"Cc1cc(NC(=O)c2ccnc(C(F)(F)C(=O)N3C4CC[C@@H]3C[C@@H](C(=O)O)C4)c2)ccc1F [Example 244, (1R,3s,5S)-8-(2,2-difluoro-2-(4-((4-fluoro-3-methylphenyl)carbamoyl)pyridin-2-yl)acetyl)-8-azabicyclo[3.2.1]octane-3-carboxylic acid]",5 to 30 µM,5 to 30 µM
"Cc1cc(NC(=O)c2ccnc(C(F)(F)C(=O)N3C4CC[C@@H]3C[C@@H](C(N)=O)C4)c2)ccc1F [Example 245, (1R,3s,5S)-8-(2,2-difluoro-2-(4-((4-fluoro-3-methylphenyl)carbamoyl)pyridin-2-yl)acetyl)-8-azabicyclo[3.2.1]octane-3-carboxamide]",> 30 µM,5 to 30 µM
